Test results published in patent publication US11884668B1, “Substituted pyrido[3′,4′:4,5]pyrrolo[2,3-c]quinolines as CK2 inhibitors” (KING FAISAL UNIVERSITY, priority 2023, dated 2024).

How the values were obtained:
HCT116 (colon) = experiment: In vitro cytotoxic activity assay (MTT), HCT116; type: cell-based; settings: Homo sapiens, HCT-116; HCT116 (colon) cells, exposed for 96 hours; read-out: IC50, concentration of compound eliciting a 50% inhibition of cell proliferation
Protocol: (§1) Compounds 1-16 were screened for their in vitro cytotoxic activity utilizing a 3-(4,5-dimethyl-thiazol-2-yl)-2,5-diphenyltetrazolium bromide (MTT) assay against selected cancer human cell lines consisting of PC3 (prostate), HCT116 (colon), A375 (melanoma), H1299 (lung), MIAPaCa-2 (pancreas), HL60 (leukemia), MCF7 (breast), MDA-MB-231 (breast) (T. Mosmann, J. Immunol. Meth., 1983, 65, 55-63). The cells were cultured at 37° C. in RMPI1640 medium supplemented with 10% fetal bovine serum, 50 IU/mL penicillin, and 50 μg/mL streptomycin in a 5% CO2 incubator. All cells were sub-cultured 3 times/week by trypsinisation. Viable cells were seeded and allowed to adhere for 12 h before a test drug was added in 96-well plates at an initial density of 1.0×10^5 cells/mL. Tumour cell lines were separately exposed to various concentrations of the tested compounds followed by incubation at a temperature of 37° C. during 96 h inside a medium of fresh RMPI 1640. Cells were subsequently incubated at 37° C. using MTT at 0.5 mg/mL during 4 h. After removal of supernatant, formazan crystals were dissolved in isopropanol and the optical density was measured at 570 nm. CX-4945 was used as a positive control.

HL60 (leukemia) = experiment: In vitro cytotoxic activity assay (MTT), HL60; type: cell-based; settings: Homo sapiens, HL-60; HL60 (leukemia) cells, exposed for 96 hours; read-out: IC50, concentration of compound eliciting a 50% inhibition of cell proliferation
Protocol: as §1

MCF7 (breast) = experiment: In vitro cytotoxic activity assay (MTT), MCF7; type: cell-based; settings: Homo sapiens; MCF7 (breast) cells, exposed for 96 hours; read-out: IC50, concentration of compound eliciting a 50% inhibition of cell proliferation
Protocol: as §1

MDA-MB-231 (breast) = experiment: In vitro cytotoxic activity assay (MTT), MDA-MB-231; type: cell-based; settings: Homo sapiens; MDA-MB-231 (breast) cells, exposed for 96 hours; read-out: IC50, concentration of compound eliciting a 50% inhibition of cell proliferation
Protocol: as §1

MIAPaCa-2 (pancreas) = experiment: In vitro cytotoxic activity assay (MTT), MIAPaCa-2; type: cell-based; settings: Homo sapiens, MIA PaCa-2; MIAPaCa-2 (pancreas) cells, exposed for 96 hours; read-out: IC50, concentration of compound eliciting a 50% inhibition of cell proliferation
Protocol: as §1

H1299 (lung) = experiment: In vitro cytotoxic activity assay (MTT), H1299; type: cell-based; settings: Homo sapiens, NCI-H1299; H1299 (lung) cells, exposed for 96 hours; read-out: IC50, concentration of compound eliciting a 50% inhibition of cell proliferation
Protocol: as §1

recombinant human CK2 = target: T1, recombinant human CK2 (Homo sapiens, UniProt P68400); experiment: CK2 Kinase Assay (radiometric, [γ-33P]ATP); type: biochemical; settings: final ATP concentration 15 μM, 10 min at 30° C.; read-out: protein kinase CK2 activity IC50
T1 construct: purchased Millipore
T1 sequence (P68400 whole entry): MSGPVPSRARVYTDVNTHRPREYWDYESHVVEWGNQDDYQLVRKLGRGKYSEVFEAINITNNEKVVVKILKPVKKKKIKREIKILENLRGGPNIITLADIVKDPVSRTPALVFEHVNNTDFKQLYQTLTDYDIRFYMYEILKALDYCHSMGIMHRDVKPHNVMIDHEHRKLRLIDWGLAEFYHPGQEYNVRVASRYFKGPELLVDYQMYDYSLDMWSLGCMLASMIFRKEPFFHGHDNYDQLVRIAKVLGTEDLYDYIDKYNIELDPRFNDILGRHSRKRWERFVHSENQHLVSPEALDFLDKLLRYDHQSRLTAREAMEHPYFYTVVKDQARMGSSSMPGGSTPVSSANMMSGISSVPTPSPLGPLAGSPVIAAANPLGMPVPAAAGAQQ
T1 sequence (P67870 whole entry partner): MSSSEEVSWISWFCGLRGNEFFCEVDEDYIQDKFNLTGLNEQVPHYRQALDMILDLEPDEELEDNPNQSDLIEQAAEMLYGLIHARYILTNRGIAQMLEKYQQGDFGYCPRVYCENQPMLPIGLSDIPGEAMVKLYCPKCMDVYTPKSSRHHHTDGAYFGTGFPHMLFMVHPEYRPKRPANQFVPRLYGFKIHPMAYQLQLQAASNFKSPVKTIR
Protocol: CK2 Kinase Assay was conducted using the protocol as described in Pierre F. et al; J. Med. Chem. 2011, 54, 635-654. The tested compounds in aqueous solution were added at a volume of 10 μL to a reaction mixture comprising 10 μL of assay dilution buffer (ADB; 20 mM MOPS, pH 7.2, 25 mM β-glycerol phosphate, 5 mM EGTA, 1 mM sodium orthovanadate, and 1 mM dithiothreitol), 10 μL of substrate peptide (RRRDDDSDDD, dissolved in ADB at a concentration of 1 mM), 10 μL of recombinant human CK2 (RROP-holoenzyme, 25 ng dissolved in ADB; Millipore). Reactions were initiated by the addition of 10 μL of ATP solution (90% 75 mMMgCl2, 75 μM ATP (final ATP concentration:15 μM) dissolved in ADB; 10% [γ-33P] ATP (stock 1mCi/100 L; 3000 Ci/mmol (Perkin-Elmer) and maintained for 10 min at 30° C. The reactions were quenched with 100 μL of 0.75% phosphoric acid and then transferred to and filtered through a phosphor cellulose filter plate (Millipore). After washing each well five times with 0.75% phosphoric acid, the plate was dried under vacuum for 5 min and, following the addition of 15 μL of scintillation fluid to each well, the residual radioactivity was measured using a Wallac luminescence counter. The IC50 values were derived from eight concentrations of test inhibitors.

A375 (melanoma) = experiment: In vitro cytotoxic activity assay (MTT), A375; type: cell-based; settings: Homo sapiens, A-375; A375 (melanoma) cells, exposed for 96 hours; read-out: IC50, concentration of compound eliciting a 50% inhibition of cell proliferation
Protocol: as §1

PC3 (prostate) = experiment: In vitro cytotoxic activity assay (MTT), PC3; type: cell-based; settings: Homo sapiens, Prostate cell; PC3 (prostate) cells, exposed for 96 hours; read-out: IC50, concentration of compound eliciting a 50% inhibition of cell proliferation
Protocol: as §1

O=C(O)c1ccc2c(c1)nc(Nc1cccc(Cl)c1)c1[nH]c3ccncc3c12 [Compound 1, 6-((3-chlorophenyl)amino)-7H-pyrido[3′,4′:4,5]pyrrolo[2,3-c]quinoline-3-carboxylic acid]
IC50 (HCT116 (colon)): 1500 nM
IC50 (HL60 (leukemia)): 2800 nM
IC50 (MCF7 (breast)): 4100 nM
IC50 (MDA-MB-231 (breast)): 2500 nM
IC50 (MIAPaCa-2 (pancreas)): 1100 nM
IC50 (H1299 (lung)): 1900 nM
IC50 (recombinant human CK2): 175 nM
IC50 (A375 (melanoma)): 3300 nM
IC50 (PC3 (prostate)): 1100 nM
